# Data from patent US20240025919A1, “AZA-TETRACYCLIC OXAZEPINE COMPOUNDS AND USES THEREOF” (Genentech, Inc., priority 2022, published 2024).
# Where two headings read alike, the source gives them in different places.
# Tests used:
# KRAS G12D = KRAS G12D (Homo sapiens (Human), UniProt P01116, G12D); assay: KRAS G12D LoEnz Biochemical Assay, BODIPY-GDP Exchange TR-FRET (SOS1-mediated nucleotide exchange); conditions: read-out: KRas (G12D) GDP HTRF IC50
# Procedure: Example 500: KRAS G12D LoEnz Biochemical Assay, BODIPY-GDP Exchange TR-FRET. Biochemical compound potencies are assessed by evaluating inhibition of SOS1I-mediated nucleotide exchange in KRAS G121D. In this assay, the SOS1-promoted exchange of fluorescently-labeled GDP (BOPIDY-GDP) is monitored by time-resolved fluorescence resonance energy transfer (TR-FRET). Compounds solubilized in DMS0 are dispensed as concentration series into 384-well white assay plates. A preformed complex of biotin-tagged recombinant human KRAS (0.06 nM mutant G1 2D) and 0.06 nM terbium-labeled streptavidin (CisBIO) prepared in 10 uL/well assay buffer (20 mM HEPES, pH 7.5, 50 mM NaCl, 10 mMMMgCl2, 0.0100 Tween-20 and 1 mM dithiothreitol) is added and allowed to incubate for 10-minutes at room temperature. The reaction is initiated with the addition of 5 uL 300 nM recombinant human SOS1 and 300 nM BODIPY-GDP in assay buffer. After a 120-minute incubation, the fluorescence is measured with excitation at 337 nm and emission at 490 and 520 nm. The TR-FRET ratio is determined as the fluorescence at 520 nm divided by the fluorescence at 490 nm multiplied by 10,000. The results are normalized to percent inhibition based on control samples: DMSO (0% inhibition) and control compound at a concentration that inhibits completely (100% inhibition). The normalized TR-FRET results are plotted against compound concentration, and the data are fit to a 4-parameter Hill equation to determine the IC50 values.
# KRAS WT = KRAS WT (Homo sapiens (Human), UniProt P01116); assay: KRAS WT Biochemical Assay, BODIPY-GDP Exchange TR-FRET (Example 501; 3 nM KRAS WT, 3 nM SOS1, 60-minute incubation)
# Procedure: Example 501: KRAS WT Biochemical Assay, BODIPY-GDP Exchange TR-FRET. Biochemical compound potencies are assessed by evaluating inhibition of SOS1-mediated nucleotide exchange in KRAS WT. In this assay, the SOS1-promoted exchange of fluorescently-labeled GDP (BOPIDY-GDP) is monitored by time-resolved fluorescence resonance energy transfer (TR-FRET). Compounds solubilized in DMSO are dispensed as concentration series into 384-well white assay plates, and 5 uL assay buffer (20 mM HEPES, pH 7.5, 50 mM NaCl, 10 mM MgCl2, 0.01% Tween-20 and 1 mM dithiothreitol) is added just prior to the start of the assay. A preformed complex of 3 nM biotin-tagged recombinant human KRAS WT and 0.3 nM terbium-labeled streptavidin (CisBIO) prepared in 5 uL/well assay buffer is added and allowed to incubate for 10-minutes at room temperature. The reaction is initiated with the addition of 5 uL 3 nM recombinant human SOS1 and 300 nM BODIPY-GDP in assay buffer. After a 60-minute incubation, the fluorescence is measured with excitation at 337 nm and emission at 490 and 520 nm. The TR-FRET ratio is determined as the fluorescence at 520 nm divided by the fluorescence at 490 nm multiplied by 10,000. The results are normalized to percent inhibition based on control samples: DMSO (0% inhibition) and control compound at a concentration that inhibits completely (100% inhibition). The normalized TR-FRET results are plotted against compound concentration, and the data are fit to a 4-parameter Hill equation to determine the IC50 values.
# [1] = read-out: KRas(wt) GDP HTRF IC50
# Chain of KRAS WT (P01116-2 other isoform, or with tags, fused parts or gaps): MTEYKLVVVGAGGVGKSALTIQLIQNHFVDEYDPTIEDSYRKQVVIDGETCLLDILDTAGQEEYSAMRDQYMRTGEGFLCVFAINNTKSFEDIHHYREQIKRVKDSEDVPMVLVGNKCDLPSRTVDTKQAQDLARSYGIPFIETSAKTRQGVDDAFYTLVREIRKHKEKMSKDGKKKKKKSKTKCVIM
# Chain of KRAS G12D (P01116-2 other isoform, or with tags, fused parts or gaps G12D): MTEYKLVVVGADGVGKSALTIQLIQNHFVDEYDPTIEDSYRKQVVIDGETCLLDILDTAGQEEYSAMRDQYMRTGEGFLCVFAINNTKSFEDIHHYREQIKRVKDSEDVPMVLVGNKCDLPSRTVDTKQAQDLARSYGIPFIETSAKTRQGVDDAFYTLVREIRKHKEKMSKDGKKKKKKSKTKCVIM
Structure (SMILES),IC50 (KRAS G12D),IC50 (KRAS WT; [1]),IC50 (KRAS WT; read-out: KRas HTRF IC50)
"C[C@@H]1Oc2nc(-c3cncc4ccccc34)c(F)c3nc(OC[C@@]45CCCN4CC4(CC4(F)F)C5)nc(c23)N2C[C@H]3CC[C@H](N3)[C@@H]12 (stereo partly drawn) [Compound 30, (5S,5aS,6S,9R)-12-(((7a′S)-2,2-difluorodihydro-1′H,3′H-spiro[cyclopropane-1,2′-pyrrolizin]-7a′(5′H)-yl)methoxy)-1-fluoro-2-(isoquinolin-4-yl)-5-methyl-5a,6,7,8,9,10-hexahydro-5H-4-oxa-3,10a,11,13,14-pentaaza-6,9-methanonaphtho[1,8-ab]heptalene]",19.4 nM,598 nM,–
"Cc1c(F)c(N)cc(-c2nc3c4c(nc(OC[C@@]56CCCN5C[C@H](OCc5ccc(-c7ccccc7C#N)cc5)C6)nc4c2F)N2C[C@H]4CC[C@H](N4)[C@H]2[C@H](C)O3)c1C(F)(F)F [Compound 32, 4′-((((2R,7aS)-7a-((((5S,5aS,6S,9R)-2-(5-amino-4-fluoro-3-methyl-2-(trifluoromethyl)phenyl)-1-fluoro-5-methyl-5a,6,7,8,9,10-hexahydro-5H-4-oxa-3,10a,11,13,14-pentaaza-6,9-methanonaphtho[1,8-ab]heptalen-12-yl)oxy)methyl)hexahydro-1H-pyrrolizin-2-yl)oxy)methyl)-[1,1′-biphenyl]-2-carbonitrile]",0.2 nM,0.579 nM,–
"C[C@@H]1Oc2nc(-c3c(C(F)(F)F)ccc(N)c3F)c(F)c3nc(OC[C@@]45CCCN4C[C@H](F)C5)nc(c23)N2C[C@H]3CC[C@H](N3)[C@@H]12 [Compound 35, 2-fluoro-3-((5S,5aS,6S,9R)-1-fluoro-12-(((2R,7aS)-2-fluorotetrahydro-1H-pyrrolizin-7a(5H)-yl)methoxy)-5-methyl-5a,6,7,8,9,10-hexahydro-5H-4-oxa-3,10a,11,13,14-pentaaza-6,9-methanonaphtho[1,8-ab]heptalen-2-yl)-4-(trifluoromethyl)aniline]",0.57 nM,15.8 nM,–
"Cc1cc(N)c(F)c(-c2nc3c4c(nc(OC[C@@]56CCCN5C[C@H](F)C6)nc4c2F)N2C[C@H]4CC[C@H](N4)[C@H]2CO3)c1C(F)(F)F [Compound 36, 2-fluoro-3-((5aS,6S,9R)-1-fluoro-12-(((2R,7aS)-2-fluorotetrahydro-1H-pyrrolizin-7a(5H)-yl)methoxy)-5a,6,7,8,9,10-hexahydro-5H-4-oxa-3,10a,11,13,14-pentaaza-6,9-methanonaphtho[1,8-ab]heptalen-2-yl)-5-methyl-4-(trifluoromethyl)aniline]",0.98 nM,46.5 nM,–
"C[C@@H]1Oc2nc(-c3cncc4cccc(Cl)c34)c(F)c3nc(OC[C@@]45CCCN4C[C@H](F)C5)nc(c23)N2C[C@H]3CC[C@H](N3)[C@@H]12 [Compound 38, (5S,5aS,6S,9R)-2-(5-Chloroisoquinolin-4-yl)-1-fluoro-12-(((2R,7aS)-2-fluorotetrahydro-1H-pyrrolizin-7a(5H)-yl)methoxy)-5-methyl-5a,6,7,8,9,10-hexahydro-5H-4-oxa-3,10a,11,13,14-pentaaza-6,9-methanonaphtho[1,8-ab]heptalene]",13.9 nM,697 nM,–
"C#Cc1cccc2cncc(-c3nc4c5c(nc(OC[C@@]67CCCN6CC6(CC6(F)F)C7)nc5c3F)N3C[C@H]5CC[C@H](N5)[C@H]3[C@H](C)O4)c12 (stereo partly drawn) [Compound 40, (5S,5aS,6S,9R)-12-(((7a′S)-2,2-difluorodihydro-1′H,3′H-spiro[cyclopropane-1,2′-pyrrolizin]-7a′(5′H)-yl)methoxy)-2-(5-ethynylisoquinolin-4-yl)-1-fluoro-5-methyl-5a,6,7,8,9,10-hexahydro-5H-4-oxa-3,10a,11,13,14-pentaaza-6,9-methanonaphtho[1,8-ab]heptalene]",1.3 nM,86.8 nM,–
"Cc1cc(N)nc(-c2nc3c4c(nc(OC[C@@]56CCCN5CC5(CC5(F)F)C6)nc4c2F)N2C[C@H]4CC[C@H](N4)[C@H]2CO3)c1C(F)(F)F (stereo partly drawn) [Compound 42, 6-((5aS,6S,9R)-12-(((7a'S)-2,2-difluorodihydro-1′H,3′H-spiro[cyclopropane-1,2′-pyrrolizin]-7a′(5′H)-yl)methoxy)-1-fluoro-5a,6,7,8,9,10-hexahydro-5H-4-oxa-3,10a,11,13,14-pentaaza[6,9]methanonaphtho[1,8-ab]heptalen-2-yl)-4-methyl-5-(trifluoromethyl)pyridin-2-amine]",0.47 nM,45.2 nM,–
"Cc1cc(N)nc(-c2nc3c4c(nc(OC[C@@]56CCCN5CC5(CC5(F)F)C6)nc4c2F)N2C[C@H]4CC[C@H](N4)[C@H]2[C@H](C)O3)c1C(F)(F)F (stereo partly drawn) [Compound 47, 6-((5S,5aS,6S,9R)-12-(((7a′S)-2,2-difluorodihydro-1′H,3′H-spiro[cyclopropane-1,2′-pyrrolizin]-7a′(5′H)-yl)methoxy)-1-fluoro-5-methyl-5a,6,7,8,9,10-hexahydro-5H-4-oxa-3,10a,11,13,14-pentaaza[6,9]methanonaphtho[1,8-ab]heptalen-2-yl)-4-methyl-5-(trifluoromethyl)pyridin-2-amine]",0.443 nM,4.43 nM,–
"C#Cc1cccc2cc(O)cc(-c3nc4c5c(nc(OC[C@@]67CCCN6C[C@H](F)C7)nc5c3F)N3C[C@H]5CC[C@H](CN5CCCF)[C@H]3CO4)c12 [Compound 50, 5-Ethynyl-4-((5aS,6R,9R)-1-fluoro-14-(3-fluoropropyl)-12-(((2R,7aS)-2-fluorotetrahydro-1H-pyrrolizin-7a(5H)-yl)methoxy)-5a,6,7,8,9,10-hexahydro-5H-4-oxa-3,10a,11,13,14-pentaaza-6,9-ethanonaphtho[1,8-ab]heptalen-2-yl)naphthalen-2-ol]",0.24 nM,1.69 nM,–
"C#Cc1cccc2cc(O)cc(-c3nc4c5c(nc(OC[C@@]67CCCN6C[C@H](F)C7)nc5c3F)N3C[C@H]5CC[C@H](CN5CC5COC5)[C@H]3CO4)c12 [Compound 51, 5-ethynyl-4-((5aS,6R,9R)-1-fluoro-12-(((2R,7aS)-2-fluorotetrahydro-1H-pyrrolizin-7a(5H)-yl)methoxy)-14-(oxetan-3-ylmethyl)-5a,6,7,8,9,10-hexahydro-5H-4-oxa-3,10a,11,13,14-pentaaza-6,9-ethanonaphtho[1,8-ab]heptalen-2-yl)naphthalen-2-ol]",0.3 nM,5.6 nM,–
"Cc1cc(N)nc(-c2nc3c4c(ncnc4c2F)N2C[C@H]4CC[C@H](N4)[C@H]2CO3)c1C(F)(F)F [Compound 52, 6-((5aS,6S,9R)-1-Fluoro-5a,6,7,8,9,10-hexahydro-5H-4-oxa-3,10a,11,13,14-pentaaza-6,9-methanonaphtho[1,8-ab]heptalen-2-yl)-4-methyl-5-(trifluoromethyl)pyridin-2-amine]",2140 nM,194000 nM,–
"Fc1c(-c2cccc3cccc(Cl)c23)nc2c3c(ncnc13)N1C[C@H]3CC[C@H](N3)[C@H]1CO2 [Compound 53, (5aS,6S,9R)-2-(8-Chloronaphthalen-1-yl)-1-fluoro-5a,6,7,8,9,10-hexahydro-5H-4-oxa-3,10a,11,13,14-pentaaza-6,9-methanonaphtho[1,8-ab]heptalene]",22200 nM,200000 nM,–
"Cc1cc(N)c(F)c(-c2nc3c4c(nc(OC[C@@]56CCCN5C[C@H](F)C6)nc4c2F)N2C[C@H]4CC[C@H](N4)[C@H]2[C@H](C)O3)c1CC(F)(F)F [Compound 182, 2-Fluoro-3-((5S,5aS,6S,9R)-1-fluoro-12-(((2R,7aS)-2-fluorotetrahydro-1H-pyrrolizin-7°(5H)-yl)methoxy)-5-methyl-5°,6,7,8,9,10-hexahydro-5H-4-oxa-3,10°,11,13,14-pentaaza-6,9-methanonaphtho[1,8-ab]heptalen-2-yl)-5-methyl-4-(2,2,2-trifluoroethyl)aniline]",0.269 nM,–,33.9 nM
